In patent US12391737B2, “Soluble NPY2 receptor agonists” (Boehringer Ingelheim International GmbH, priority 2020, dated 2025):

How the values were obtained:
[1] = Solubility determination; conditions: for Sol6: pH 6; for Sol7: pH 7
Summary of the method: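 First, TFA-salt peptide was added to 0.1 M sodium diphosphate (pH 6.4 or 7.0) to 10 mg/ml and shaken 2 h at room temperature. Next, insoluble material was filtered off. Finally, filtrate and control, each 1 mg/ml in 50% acetonitrile, were compared by reversed-phase chromatography.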

[2] = molecular target: T1, Human Neuropeptide Y2 Receptor (Homo sapiens, UniProt P49146); experiment: Radioligand binding competition assay (RLB); conditions: Table 3, 125I-PYY(1-36) competition; read-out: Ki
T1 construct: purchased CHEMICON HTS066M
T1 sequence (P49146 1-381): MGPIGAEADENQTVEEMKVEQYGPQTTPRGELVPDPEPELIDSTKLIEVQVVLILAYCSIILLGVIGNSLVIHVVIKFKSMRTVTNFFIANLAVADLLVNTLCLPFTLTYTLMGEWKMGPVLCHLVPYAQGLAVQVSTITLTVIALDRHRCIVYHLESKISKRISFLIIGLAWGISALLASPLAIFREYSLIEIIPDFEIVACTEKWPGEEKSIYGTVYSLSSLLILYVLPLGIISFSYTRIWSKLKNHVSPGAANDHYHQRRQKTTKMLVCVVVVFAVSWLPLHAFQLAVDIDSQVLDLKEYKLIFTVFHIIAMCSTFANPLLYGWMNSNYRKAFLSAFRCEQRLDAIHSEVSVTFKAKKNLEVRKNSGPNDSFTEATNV
Summary of the method: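 Displacement of radioligand is measured after 2 h at room temperature with receptor membranes in Mg2+/Ca2+ HEPES buffer, pH 7.4. Filter-bound radioactivity is counted and IC50 obtained from curve fitting.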

CC(C)CC(=O)N[C@@H](C)C(=O)N1CCC[C@H]1C(=O)N[C@@H](C)C(=O)N[C@@H](CCCCNC(=O)CCCCCNC(=O)CC[C@H](NC(=O)CCCCCCCCCCCCCCCCC(=O)O)C(=O)O)C(=O)N1CCC[C@H]1C(=O)N[C@@H](CCC(=O)O)C(=O)N[C@@H](CCC(=O)O)C(=O)N[C@@H](CC(=O)O)C(=O)N[C@@H](C)C(=O)N[C@@H](CO)C(=O)N1CCC[C@H]1C(=O)N[C@@H](CCC(=O)O)C(=O)N[C@@H](CCC(=O)O)C(=O)N[C@@H](CC(C)C)C(=O)N[C@@H](CCC(N)=O)C(=O)N[C@@H](CCCNC(=N)N)C(=O)N[C@@H](Cc1ccc(O)cc1)C(=O)N[C@@H](Cc1ccc(O)cc1)C(=O)N[C@H](C(=O)N[C@@H](CO)C(=O)N[C@@H](CC(C)C)C(=O)N[C@@H](CCCNC(=N)N)C(=O)N[C@@H](Cc1c[nH]cn1)C(=O)N[C@@H](Cc1ccc(O)cc1)C(=O)N[C@@H](CCC(N)=O)C(=O)N[C@@H](CC(N)=O)C(=O)N[C@@H](Cc1c[nH]c2ccccc12)C(=O)N[C@@H](CC(C)C)C(=O)N[C@H](C(=O)N[C@@H](CCCNC(=N)N)C(=O)N[C@@H](CCC(N)=O)C(=O)N[C@@H](CCCNC(=N)N)C(=O)N[C@@H](Cc1ccc(O)cc1)C(N)=O)[C@@H](C)O)C(C)C [Compound 77, N{alpha-4}-(3-methylbutanoyl)-N{epsilon-7}-(6-[(4S)-4-carboxy-4-(17-carboxyheptadecanamido)butanamido]hexanoyl)-[4A,6A,7K,9E,18Q,22V,28Q,30W,31L]-hPYY(4-36)]
Sol6 [1]: >10.0 mg/mL | Sol7 [1]: 9.0 mg/mL | Ki [2]: 9.73 nM

CC(C)CC(=O)N[C@@H](C)C(=O)N1CCC[C@H]1C(=O)N[C@@H](CCC(=O)O)C(=O)N[C@@H](CCCCNC(=O)CCCCCNC(=O)CC[C@H](NC(=O)CCCCCCCCCCCCCCCCC(=O)O)C(=O)O)C(=O)N1CCC[C@H]1C(=O)N[C@@H](CCC(=O)O)C(=O)N[C@@H](CCC(=O)O)C(=O)N[C@@H](CC(=O)O)C(=O)N[C@@H](C)C(=O)N[C@@H](CO)C(=O)N[C@@H](CCC(=O)O)C(=O)N[C@@H](C)C(=O)N[C@@H](CCC(=O)O)C(=O)N[C@@H](CC(C)C)C(=O)N[C@@H](CCC(N)=O)C(=O)N[C@@H](CCCNC(=N)N)C(=O)N[C@@H](Cc1ccc(O)cc1)C(=O)N[C@@H](Cc1ccc(O)cc1)C(=O)N[C@H](C(=O)N[C@@H](CO)C(=O)N[C@@H](CC(C)C)C(=O)N[C@@H](CCCNC(=N)N)C(=O)N[C@@H](Cc1c[nH]cn1)C(=O)N[C@@H](Cc1ccc(O)cc1)C(=O)N[C@@H](Cc1ccc(O)cc1)C(=O)N[C@@H](CC(N)=O)C(=O)N[C@@H](Cc1c[nH]c2ccccc12)C(=O)N[C@@H](CC(C)C)C(=O)N[C@H](C(=O)N[C@@H](CCCNC(=N)N)C(=O)N[C@@H](CCC(N)=O)C(=O)N[C@@H](CCCNC(=N)N)C(=O)N[C@@H](Cc1ccc(O)cc1)C(N)=O)[C@@H](C)O)C(C)C [Compound 80, N{alpha-4}-(3-methylbutanoyl)-N{epsilon-7}-(6-[(4S)-4-carboxy-4-(17-carboxyheptadecanamido)butanamido]hexanoyl)-[4A,7K,9E,14E,15A,18Q,22V,28Y,30W,31L]-hPYY(4-36)]
Sol6 [1]: 8.1 mg/mL | Sol7 [1]: 8.2 mg/mL | Ki [2]: 4.62 nM
